Test: molar heat capacity at saturation pressure

C1C2CC3CC1CC(C14CC5CC(CC(C5)C1)C4)(C2)C3 [1,1'-biadamantane]
Conditions	molar heat capacity [J/K/mol]
306.17 K, Crystal 3, Small (less than 1 g) adiabatic calorimetry	347.5
307.06 K, Crystal 3, Small (less than 1 g) adiabatic calorimetry	348.5
307.82 K, Crystal 3, Small (less than 1 g) adiabatic calorimetry	349.9
309.07 K, Crystal 3, Small (less than 1 g) adiabatic calorimetry	351.4
309.47 K, Crystal 3, Small (less than 1 g) adiabatic calorimetry	352.2
311.07 K, Crystal 3, Small (less than 1 g) adiabatic calorimetry	354
311.11 K, Crystal 3, Small (less than 1 g) adiabatic calorimetry	354.6
312.75 K, Crystal 3, Small (less than 1 g) adiabatic calorimetry	356.8
313.06 K, Crystal 3, Small (less than 1 g) adiabatic calorimetry	356.9
314.38 K, Crystal 3, Small (less than 1 g) adiabatic calorimetry	359.1
315.04 K, Crystal 3, Small (less than 1 g) adiabatic calorimetry	359.6
316.02 K, Crystal 3, Small (less than 1 g) adiabatic calorimetry	361.4
317.02 K, Crystal 3, Small (less than 1 g) adiabatic calorimetry	362.4
317.64 K, Crystal 3, Small (less than 1 g) adiabatic calorimetry	363.7
319 K, Crystal 3, Small (less than 1 g) adiabatic calorimetry	365.1
319.26 K, Crystal 3, Small (less than 1 g) adiabatic calorimetry	366
320.52 K, Crystal 3, Small (less than 1 g) adiabatic calorimetry	367.5
320.8 K, Crystal 3, Small (less than 1 g) adiabatic calorimetry	367.7
321.41 K, Crystal 3, Small (less than 1 g) adiabatic calorimetry	368.7
322.3 K, Crystal 3, Small (less than 1 g) adiabatic calorimetry	370.2
322.43 K, Crystal 3, Small (less than 1 g) adiabatic calorimetry	370.1
323.19 K, Crystal 3, Small (less than 1 g) adiabatic calorimetry	371.6
324.05 K, Crystal 3, Small (less than 1 g) adiabatic calorimetry	372.5
324.09 K, Crystal 3, Small (less than 1 g) adiabatic calorimetry	372.8
324.98 K, Crystal 3, Small (less than 1 g) adiabatic calorimetry	374.1
325.67 K, Crystal 3, Small (less than 1 g) adiabatic calorimetry	375
325.87 K, Crystal 3, Small (less than 1 g) adiabatic calorimetry	375.2
326.76 K, Crystal 3, Small (less than 1 g) adiabatic calorimetry	376.5
327.28 K, Crystal 3, Small (less than 1 g) adiabatic calorimetry	377.6
327.65 K, Crystal 3, Small (less than 1 g) adiabatic calorimetry	377.8
328.53 K, Crystal 3, Small (less than 1 g) adiabatic calorimetry	379.5
328.89 K, Crystal 3, Small (less than 1 g) adiabatic calorimetry	380.4
329.42 K, Crystal 3, Small (less than 1 g) adiabatic calorimetry	380.9
330.31 K, Crystal 3, Small (less than 1 g) adiabatic calorimetry	382.3
330.5 K, Crystal 3, Small (less than 1 g) adiabatic calorimetry	384
331.19 K, Crystal 3, Small (less than 1 g) adiabatic calorimetry	388.1
332.05 K, Crystal 3, Small (less than 1 g) adiabatic calorimetry	401.3
332.08 K, Crystal 3, Small (less than 1 g) adiabatic calorimetry	395.6
332.9 K, Crystal 3, Small (less than 1 g) adiabatic calorimetry	409.2
333.64 K, Crystal 3, Small (less than 1 g) adiabatic calorimetry	409.5
333.73 K, Crystal 3, Small (less than 1 g) adiabatic calorimetry	418.7
334.55 K, Crystal 3, Small (less than 1 g) adiabatic calorimetry	433.2
335.12 K, Crystal 3, Small (less than 1 g) adiabatic calorimetry	446.3
335.33 K, Crystal 3, Small (less than 1 g) adiabatic calorimetry	453.8
336.07 K, Crystal 2, Small (less than 1 g) adiabatic calorimetry	469.6
336.53 K, Crystal 2, Small (less than 1 g) adiabatic calorimetry	499.5
336.81 K, Crystal 2, Small (less than 1 g) adiabatic calorimetry	461.5
337.59 K, Crystal 2, Small (less than 1 g) adiabatic calorimetry	432.8
337.89 K, Crystal 2, Small (less than 1 g) adiabatic calorimetry	481.7
338.4 K, Crystal 2, Small (less than 1 g) adiabatic calorimetry	410.4
339.25 K, Crystal 2, Small (less than 1 g) adiabatic calorimetry	400.5
339.33 K, Crystal 2, Small (less than 1 g) adiabatic calorimetry	423.8
340.12 K, Crystal 2, Small (less than 1 g) adiabatic calorimetry	396.8
340.86 K, Crystal 2, Small (less than 1 g) adiabatic calorimetry	403.4
340.99 K, Crystal 2, Small (less than 1 g) adiabatic calorimetry	393.9
341.87 K, Crystal 2, Small (less than 1 g) adiabatic calorimetry	393.4
342.42 K, Crystal 2, Small (less than 1 g) adiabatic calorimetry	398.5
342.75 K, Crystal 2, Small (less than 1 g) adiabatic calorimetry	393.3
343.63 K, Crystal 2, Small (less than 1 g) adiabatic calorimetry	393.7
343.99 K, Crystal 2, Small (less than 1 g) adiabatic calorimetry	395.4
344.52 K, Crystal 2, Small (less than 1 g) adiabatic calorimetry	394.3
345.4 K, Crystal 2, Small (less than 1 g) adiabatic calorimetry	395
345.57 K, Crystal 2, Small (less than 1 g) adiabatic calorimetry	396.6
346.29 K, Crystal 2, Small (less than 1 g) adiabatic calorimetry	395.9
347.15 K, Crystal 2, Small (less than 1 g) adiabatic calorimetry	397.4
347.17 K, Crystal 2, Small (less than 1 g) adiabatic calorimetry	396.8
348.06 K, Crystal 2, Small (less than 1 g) adiabatic calorimetry	397.6
348.72 K, Crystal 2, Small (less than 1 g) adiabatic calorimetry	398.5
348.95 K, Crystal 2, Small (less than 1 g) adiabatic calorimetry	398.4
349.84 K, Crystal 2, Small (less than 1 g) adiabatic calorimetry	399.5
350.3 K, Crystal 2, Small (less than 1 g) adiabatic calorimetry	400
351.09 K, Crystal 2, Small (less than 1 g) adiabatic calorimetry	401.1
351.88 K, Crystal 2, Small (less than 1 g) adiabatic calorimetry	403.6
352.68 K, Crystal 2, Small (less than 1 g) adiabatic calorimetry	402.9
353.46 K, Crystal 2, Small (less than 1 g) adiabatic calorimetry	405.6
354.28 K, Crystal 2, Small (less than 1 g) adiabatic calorimetry	404.8
355.03 K, Crystal 2, Small (less than 1 g) adiabatic calorimetry	407.3
355.88 K, Crystal 2, Small (less than 1 g) adiabatic calorimetry	406.9
356.61 K, Crystal 2, Small (less than 1 g) adiabatic calorimetry	409.2
357.47 K, Crystal 2, Small (less than 1 g) adiabatic calorimetry	408.7
358.18 K, Crystal 2, Small (less than 1 g) adiabatic calorimetry	411.3
359.05 K, Crystal 2, Small (less than 1 g) adiabatic calorimetry	411
359.75 K, Crystal 2, Small (less than 1 g) adiabatic calorimetry	413.4
360.64 K, Crystal 2, Small (less than 1 g) adiabatic calorimetry	412.9
361.32 K, Crystal 2, Small (less than 1 g) adiabatic calorimetry	415.4
362.22 K, Crystal 2, Small (less than 1 g) adiabatic calorimetry	414.6
362.88 K, Crystal 2, Small (less than 1 g) adiabatic calorimetry	417.5
363.82 K, Crystal 2, Small (less than 1 g) adiabatic calorimetry	416.7
364.44 K, Crystal 2, Small (less than 1 g) adiabatic calorimetry	419.7
365.3 K, Crystal 2, Large sample (1 g) DSC	422.2
365.4 K, Crystal 2, Small (less than 1 g) adiabatic calorimetry	418.8
366 K, Crystal 2, Small (less than 1 g) adiabatic calorimetry	421.6
366.98 K, Crystal 2, Small (less than 1 g) adiabatic calorimetry	420.9
367.55 K, Crystal 2, Small (less than 1 g) adiabatic calorimetry	423.3
368.55 K, Crystal 2, Small (less than 1 g) adiabatic calorimetry	423
